Measured values published in patent US20050101002A1, “Process for production of low temperature active alkaline protease from a deep-sea fungus” (COUNCIL OF SCIENTIFIC & INDUSTRIAL RESEARCH, priority 2003, published 2005).
“Also recorded” adds a separate entry of the source.

System: protease of Aspergillus sp. MTCC 5102
Test: Protease assayed in the presence of EDTA, PMSF, HgCl2
Assay type: biochemical
Settings: for Inhibition of protease activity (in words): assayed in the presence of the additive
Experimental: The said fungus Aspergillus sp. MTCC 5102 is grown in malt extract broth containing 2% malt extract and 0.3% peptone in sea water. The 7-day old fungal mat obtained this way was macerated and used as a starter inoculum for the experimental cultures containing glucose or cellulose at a concentration of 1% (w/v). Casein, spray-dried dairy whitener, soybean meal, molasses or corn steep liquor at a 1% concentration was used as the organic nitrogen source. The Czapek Dox broth to which the above mentioned nitrogen-containing substrates were added independently, contained 10 g glucose, 2 g NaNO3, 1 g K2HPO4, 0.5 g MgSO4, 0.5 g KCl and 0.01 g Fe2SO4 L^−1 medium. The pH of the medium was adjusted to 7.0 or 9.0. This medium was prepared with distilled water or sea water. The cultures were grown as shallow static cultures for 4-6 days. The cell-free clear supernatant obtained after filtration through GF/F filters followed by 0.22 μm Nuclepore filters was used as the source of alkaline protease. Protease activity was measured using Azocasein (Sigma Chemicals, Mo, USA) at 2% concentration. Azocasien Units (ACU) released at various temperatures and pH combinations were measured at 440 nm and expressed as an increase in absorbance by 0.001 in 1 minute (Alfredsson, G. A, Gudmundsson H. M., Xiang J. Y., Kristjansson M. M. 1995, Subtilisin-like serine proteases from psychrophilic marine bacteria. J. Mar. Biotech. 3: 71-72). Substrate and enzyme blanks were maintained for all the assays. All the assays were run in triplicates.
The said fungus Aspergillus sp. MTCC 5102 was grown as described in Example 1 and the clear supernatant was used for testing whether the protease enzyme was serine or metalloprotease. For this purpose the enzyme was assayed in the presence of 50 mM […] (EDTA), 2 mM phenylmethylsulfonyl fluoride (PMSF) and 200 μM mercuric chloride (HgCl2).

Row | Compound | % inhibition (200 μM) [%] | Residual specific activity (%) (200 μM) | Inhibition of protease activity (in words) | % inhibition (50 mM) [%] | Residual specific activity (%) (50 mM) | % inhibition (2 mM) [%] | Residual specific activity (%) (2 mM)
1 | [Cl][Hg][Cl] [HgCl2, mercuric chloride] | 14 | 86 | not inhibited | – | – | – | –
2 | O=C(O)CN(CCN(CC(=O)O)CC(=O)O)CC(=O)O [EDTA, ethylenediamine tetraacetic acid] | – | – | not inhibited; also recorded: no inhibition of activity | 6 | 94 | – | –
3 | O=S(=O)(F)Cc1ccccc1 [PMSF, phenylmethylsulfonyl fluoride] | – | – | totally inhibited; also recorded: inhibition of the activity | – | – | 100 | 0
